Measured values from US9850227B2 (YUHAN CORPORATION, priority 2011, dated 2017).
Structures can show the parent of a compound that is named as a salt.

Molecular target: T1, human 5-HT4(a) (Homo sapiens, UniProt Q13639)
T1 construct: host or cells: GeneBIAzer HTR4-CRE-bla CHO-K1 cells
Assay: Evaluation of agonistic activity in CHO-K1 cells expressing human 5-HT4(a) (GeneBIAzer HTR4-CRE-bla CHO-K1 cells, beta-lactamase fluorescence ratio, EC50 from 8 concentrations)
Format: cell-based
Procedure: Evaluation of Agonistic Activity in CHO-K1 Cells Expressing Human 5-HT4(a)
As CHO-K1 cells stably expressing human 5-HT4(a), we used the GeneBIAzer HTR4-CRE-bla CHO-K1 cells (Invitrogen Corp.). The cells were cultured, under the condition of 37° C. and 5% CO2, in a DMEM supplemented with 10% fetal bovine serum (FBS), 25 mM HEPES (pH7.4), 600 μg/ml hygromycin B, 0.1 mM non-essential amino acids, 100 unit/ml penicillin and 100 μg/ml streptomycin. Subcultures were performed three times per one week, each being at less than 80% confluence. At the previous day before treating test compounds, the cells were collected using 0.5% trypsin/EDTA and then diluted with a DMEM supplemented with 1% FBS, 25 mM HEPES, and 0.1 mM non-essential amino acids into 3.125×10^5 cells/ml. 32 μl of the diluted cells were added into 384-well plate (10^4 cells per well) and then incubated overnight. After the overnight culture, 8 μl of the medium having 1% of DMSO was added into the cell-free control well and the non-stimulating control well, respectively. 8 μl of the respective test compound dilutions (which had been prepared by diluting by 100-times with the medium as mentioned in the above) having 1% of DMSO were added to the respective remaining wells. After being cultured in the incubator for 5 hours, the wells of the 384-plate were treated with the substrate solution (8 μl per well) prepared according to the vendor's instruction (i.e., Invitrogen's instruction), and then incubated in the dark room for additional two hours. Agonistic activities on 5-HT4 receptor were evaluated, on the basis of fluorescence values of the cleavage-products by beta-lactamase. After exciting to 410 nm of wavelength using a fluorescence detector (Genios Pro), we measured the fluorescence values at two emission wavelengths (first wavelength: 465 nm, second wavelength: 535 nm). Data were analyzed on the basis of the ratio of fluorescence intensities of each well at the respective wavelengths. Each EC50 value was calculated by non-linear regression analysis using the “GraphPad Prism” program, based on the activities according to 8-different concentrations of the test compounds.

T1 sequence (Q13639 1-387 isoform Q13639-2): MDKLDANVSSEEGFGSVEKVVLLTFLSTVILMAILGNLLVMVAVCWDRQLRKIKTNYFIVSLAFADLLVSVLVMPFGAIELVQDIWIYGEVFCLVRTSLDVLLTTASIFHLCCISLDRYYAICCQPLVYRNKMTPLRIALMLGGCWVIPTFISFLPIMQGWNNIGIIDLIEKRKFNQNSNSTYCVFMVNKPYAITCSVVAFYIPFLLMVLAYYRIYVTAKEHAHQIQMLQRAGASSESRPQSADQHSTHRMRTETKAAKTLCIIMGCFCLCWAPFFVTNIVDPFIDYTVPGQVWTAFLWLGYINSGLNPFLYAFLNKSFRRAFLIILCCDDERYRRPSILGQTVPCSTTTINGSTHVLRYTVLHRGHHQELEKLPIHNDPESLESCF

Row | EC50 [nM] | SMILES
1 | 0.021 | CCCN[C@@H]1CCCN(c2cc(CCC)nc(Nc3ccc(F)c(C#N)c3)n2)C1 [Example 225, (R)-2-fluoro-5-{4-[3-(propylamino)piperidin-1-yl]-6-propylpyrimidin-2-ylamino}benzonitrile]
2 | 0.4 | CCCc1cc(N2CCCC3CCCCC32)nc(Nc2cccc(SC)c2)n1 (stereo not drawn) [Example 198, N-(3-methylthiophenyl)-4-(octahydroquinolin-1(2H)-yl)-6-propylpyrimidin-2-amine]
3 | 0.01 | CCCc1cc(N2CCC[C@@H](NCc3ccc(O)cc3)C2)nc(Nc2ccc(C)c(C#N)c2)n1 [Example 219, (R)-5-{4-[3-(4-hydroxybenzylamino)piperidin-1-yl]-6-propylpyrimidin-2-ylamino}-2-methylbenzonitrile]
4 | 0.088 | CCCc1cc(N2CCC[C@@H](NCC3CC3)C2)nc(Nc2ccc(C)c(C#N)c2)n1 [Example 267, (R)-5-{4-[3-(cyclopropylmethylamino)piperidin-1-yl]-6-propylpyrimidin-2-ylamino}-2-methylbenzonitrile]
5 | 0.064 | CCCc1cc(N2CCC[C@@H](NCc3cc(C)c(C)o3)C2)nc(Nc2ccc(C)c(C#N)c2)n1 [Example 215, (R)-5-(4-{3-[(4,5-dimethylfuran-2-ylmethyl)amino]piperidin-1-yl}-6-propylpyrimidin-2-ylamino)-2-methylbenzonitrile]
6 | 0.15 | CCCc1cc(N2CCCCC2CCO)nc(Nc2cccc([N+](=O)[O-])c2)n1 (stereo not drawn) [Example 141, 2-{1-[2-(3-nitrophenylamino)-6-propylpyrimidin-4-yl]piperidin-2-yl}ethanol]
7 | 0.046 | CCCc1cc(N2CCC[C@@H](NC(C)=O)C2)nc(Nc2cccc(C#N)c2)n1 [Example 273, (R)—N-{1-[2-(3-cyanophenylamino)-6-propylpyrimidin-4-yl]piperidin-3-yl}acetamide]
8 | 0.045 | CCCN[C@@H]1CCCN(c2cc(CCC)nc(Nc3cccc(C#N)c3)n2)C1 [Example 223, (R)-3-{4-[3-(propylamino)piperidin-1-yl]-6-propylpyrimidin-2-ylamino}benzonitrile]
9 | 0.12 | CCCc1cc(N2CCCCC2CCO)nc(Nc2cccc(C#N)c2)n1 (stereo not drawn) [Example 131, 3-{4-[2-(2-hydroxyethyl)piperidin-1-yl]-6-propylpyrimidin-2-ylamino}benzonitrile]
10 | 0.026 | CCCc1cc(N2CCC[C@@H](NCC)C2)nc(Nc2ccc(F)c(C#N)c2)n1 [Example 271, (R)-5-[4-(3-ethylaminopiperidin-1-yl)-6-propylpyrimidin-2-ylamino]-2-fluorobenzonitrile]
11 | 0.018 | CCCc1cc(N2CCC[C@@H](NC(=O)CO)C2)nc(Nc2ccc(N)c(C(F)(F)F)c2)n1 [Example 248, (R)—N-(1-{2-[4-amino-3-(trifluoromethyl)phenylamino]-6-propylpyrimidin-4-yl}piperidin-3-yl)-2-hydroxyacetamide]
12 | 0.016 | CCCc1cc(N2CCC[C@@H](NC(=O)CO)C2)nc(Nc2cc(N)cc(C#N)c2)n1 [Example 255, (R)—N-{1-[2-(3-amino-5-cyanophenylamino)-6-propylpyrimidin-4-yl]piperidin-3-yl}-2-hydroxyacetamide]
13 | 0.025 | CCCCc1cc(N2CCC[C@@H](NC)C2)nc(Nc2ccc(C)c(OC)c2)n1 [Example 318, (R)-4-butyl-N-(3-methoxy-4-methylphenyl)-6-[3-(methylamino)piperidin-1-yl]pyrimidin-2-amine]
14 | 0.016 | CCCc1cc(N2CCC[C@@H](NC(=O)CO)C2)nc(Nc2ccc(Cl)c(N)c2)n1 [Example 251, (R)—N-{1-[2-(3-amino-4-chlorophenylamino)-6-propylpyrimidin-4-yl]piperidin-3-yl}-2-hydroxyacetamide]
15 | 0.054 | CCCCc1cc(N2CCC[C@@H](NC)C2)nc(Nc2cccc(C#N)c2)n1 [Example 329, (R)-3-({4-butyl-6-[3-(methylamino)piperidin-1-yl]pyrimidin-2-yl}amino)benzonitrile]
16 | 0.022 | CCCc1cc(N2CCC[C@@H](NCCC(C)C)C2)nc(Nc2ccc(C)c(C#N)c2)n1 [Example 210, (R)-5-{4-[3-(isopentylamino)piperidin-1-yl]-6-propylpyrimidin-2-ylamino}-2-methylbenzonitrile]
17 | 0.36 | CCCc1cc(N2CCCCC2CC)nc(Nc2cccc(SC)c2)n1 (stereo not drawn) [Example 104, 4-(2-ethylpiperidin-1-yl)-N-[3-(methylthio)phenyl]-6-propylpyrimidin-2-amine]

Row | EC50 [nM] | SMILES
18 | 0.008 | CCCc1cc(N2CCC[C@@H](NCC)C2)nc(Nc2ccc(C)c(C#N)c2)n1 [Example 205, (R)-5-{4-[3-(ethylamino)piperidin-1-yl]-6-propylpyrimidin-2-ylamino}-2-methylbenzonitrile]
19 | 0.0041 | CCCc1cc(N2CCNC[C@H]2C)nc(Nc2cc(N)cc(C#N)c2)n1 [Example 129, (R)-3-amino-5-[4-(2-methylpiperazin-1-yl)-6-propylpyrimidin-2-ylamino]benzonitrile]
20 | 0.1 | CCCc1cc(N2CCC[C@@H](NC(C)C)C2)nc(Nc2ccc(C)c(C#N)c2)n1 [Example 212, (R)-5-{4-[3-(isopropylamino)piperidin-1-yl]-6-propylpyrimidin-2-ylamino}-2-methylbenzonitrile]
21 | 0.075 | CCCc1cc(N2CCC[C@H](NCc3ccc(O)cc3)C2)nc(Nc2ccc(C)c(C#N)c2)n1 [Example 164, (S)-5-{4-[3-(4-hydroxybenzylamino)piperidin-1-yl]-6-propylpyrimidin-2-ylamino}-2-methylbenzonitrile]
22 | 0.0094 | CCCCc1cc(N2CCC[C@@H](NC(C)=O)C2)nc(Nc2ccc(N)c(C#N)c2)n1 [Example 243, (R)—N-{1-[2-(4-amino-3-cyanophenylamino)-6-butylpyrimidin-4-yl]piperidin-3-yl}acetamide]
23 | 0.18 | CCCc1cc(N2CCCC3CCCCC32)nc(Nc2ccc3[nH]c(C(F)(F)F)nc3c2)n1 (stereo not drawn) [Example 200, N-[4-(octahydroquinolin-1(2H)-yl)-6-propylpyrimidin-2-yl]-2-(trifluoromethyl)-1H-benzo[d]imidazol-5-amine]
24 | 0.029 | CCCCc1cc(N2CCC[C@@H](N)C2)nc(Nc2ccc(N)cc2)n1 [Example 352, (R)—N^1-[4-(3-aminopiperidin-1-yl)-6-butylpyrimidin-2-yl]benzene-1,4-diamine]
25 | 0.026 | CCCc1cc(N2CCCCC2CCO)nc(Nc2ccc(Cl)c([N+](=O)[O-])c2)n1 (stereo not drawn) [Example 24, 2-{1-[2-(4-chloro-3-nitrophenylamino)-6-propylpyrimidin-4-yl]piperidin-2-yl}ethanol]
26 | 0.011 | CCCc1cc(N2CCC[C@@H](NC)C2)nc(Nc2ccc(C)c(OC)c2)n1 [Example 309, (R)—N-(3-methoxy-4-methylphenyl)-4-[3-(methylamino)piperidin-1-yl]-6-propylpyrimidin-2-amine]
27 | 0.0086 | CCCCc1cc(N2CCC[C@@H](NC(C)=O)C2)nc(Nc2ccc(C)c(C#N)c2)n1 [Example 295, (R)—N-{1-[6-butyl-2-(3-cyano-4-methylphenylamino)pyrimidin-4-yl]piperidin-3-yl}acetamide]
28 | 0.07 | CCCc1cc(N2CCC[C@H](N)C2)nc(Nc2ccc(C)c(C#N)c2)n1 [Example 150, (S)-5-[4-(3-aminopiperidin-1-yl)-6-propylpyrimidin-2-ylamino]-2-methylbenzonitrile dihydrochloride]
29 | 0.017 | CCCCc1cc(N2CCC[C@@H](NC(C)=O)C2)nc(Nc2ccc(F)c(C(F)(F)F)c2)n1 [Example 239, (R)—N-{1-[6-butyl-2-(4-fluoro-3-trifluoromethylphenylamino)pyrimidin-4-yl]piperidin-3-yl}acetamide]
30 | 0.2 | CCCc1cc(N2CCCCC2CC)nc(Nc2ccc(F)c([N+](=O)[O-])c2)n1 (stereo not drawn) [Example 100, 4-(2-ethylpiperidin-1-yl)-N-(4-fluoro-3-nitrophenyl)-6-propylpyrimidin-2-amine]
31 | 0.013 | CCCc1cc(N2CCC[C@@H](NC)C2)nc(Nc2ccc(N)c(C#N)c2)n1 [Example 308, (R)-2-amino-5-({4-[3-(methylamino)piperidin-1-yl]-6-propylpyrimidin-2-yl}amino)benzonitrile]
32 | 0.0046 | CCCc1cc(N2CCC[C@@H](NCC)C2)nc(Nc2ccc(N)c([N+](=O)[O-])c2)n1 [Example 288, (R)—N^1-[4-(3-ethylaminopiperidin-1-yl)-6-propylpyrimidin-2-yl]-3-nitrobenzene-1,4-diamine]
33 | 0.054 | CCCc1cc(N2CCC[C@H](NCC(C)(C)C)C2)nc(Nc2ccc(C)c(C#N)c2)n1 [Example 158, (S)-2-methyl-5-{4-[3-(neopentylamino)piperidin-1-yl]-6-propylpyrimidin-2-ylamino}benzonitrile]
